The record followed here is ChEMBL document CHEMBL2057062, “Synthesis and biological evaluation of 4-phenylquinazoline-2-carboxamides designed as a novel class of potent ligands of the translocator protein” (J Med Chem, 2012).

For test [1], the target named is Translocator protein (Rattus norvegicus) (UniProt P16257). As to the kind of experiment: Displacement of [3H]PK11195 from TSPO in rat kidney mitochondrial membranes at 1 uM by competitive binding assay. The settings on record: Membrane. The format is cell membranes. On the technique in general: Displacement assays read how much labelled ligand stays bound in the presence of the test substance.

Test [2] is filed under the species Rattus norvegicus. Kind of test: Displacement of [3H]flumazenil from central benzodiazepine receptor in rat cerebral cortex membranes at 10 uM after 90 mins by competitive binding assay. The settings on record: Membrane. The class given is cell membranes.
Test [3] addresses Translocator protein (Rattus norvegicus, UniProt P16257). Kind of test: Displacement of [3H]PK11195 from TSPO in rat kidney mitochondrial membranes by competitive binding assay. The class given is cell membranes, Membrane.
The subject of test [4] is C6. Kind of test: Increase in pregnenolone production in rat C6 glioma cells at 40 uM after 2 hrs by ELISA. The class given is functional, cell-based. A general note: An ELISA detects its analyte on a solid surface through an enzyme-linked reagent.
The test system of test [5] is U-87MG ATCC. As to the kind of experiment: Antiproliferative activity against human U87MG cells assessed as cell viability at 100 uM after 24 hrs by MTS assay. The class given is functional, cell-based. (In general: Tetrazolium assays rely on reduction of a dye to a coloured formazan, in cell work by metabolically active cells.)

Activity calls are given as the source filed them. The calls are words filed in the database; no cut-off is given here.

In general, inhibition refers to how much of the control response was suppressed. The low end stands for a weak effect, the high end for a strong effect. With `O=C(c1nc(-c2ccccc2)c2cc(Cl)ccc2n1)N1CCCC1`, the results for the inhibition in test [1] and in test [2] were 43% and 0%, respectively.

As to `CCC(C)NC(=O)c1nc(-c2ccc(Cl)cc2)c2cc(Cl)ccc2n1` (stereo unspecified), the inhibition in test [1] turned out to be 49%; in test [2], 0%.

For the compound `CCC(C)NC(=O)c1nc(-c2ccccc2)c2ccccc2n1` (stereo unspecified), the inhibition in test [1] and in test [2] was 0% each time.

As a reminder, the Ki is a measure of affinity in units of concentration, obtained from inhibition or displacement. Read a low Ki as tighter binding. Consider `CCCCCCN(CCCCCC)C(=O)c1nc(-c2ccc(Cl)cc2)c2cc(Cl)ccc2n1`, for which the affinity in test [3] corresponds to a Ki of 4.31 nM. Further, in test [2], the inhibition turned out to be 0%.

Turning to `CCCCCCN(CCCCCC)C(=O)c1nc(-c2ccc(Cl)cc2)c2ccccc2n1`, the Ki in test [3] was found to be 3.42 nM. The outcome in test [4] was Active. The compound further came in with an inhibition in test [2] of 0%.

`O=C(c1nc(-c2ccc(Cl)cc2)c2ccccc2n1)N1CCCCC1` returned a Ki in test [3] of 493 nM. This compound also had an inhibition in test [2] of 0%.

`CC[C@H](C)N(C)C(=O)c1nc(-c2ccccc2)c2ccccc2n1` gave a Ki in test [3] of 6.09 nM. In test [2], this compound displayed an inhibition of 0%.

As for `CC(C)N(C)C(=O)c1nc(-c2ccc(Cl)cc2)c2cc(Cl)ccc2n1`, the figures for the inhibition in test [1] and in test [2] were 39% and 0%, respectively.

Consider `CC(C)N(C)C(=O)c1nc(-c2ccccc2)c2ccccc2n1`, for which the Ki in test [3] came to 70.3 nM. Also, the inhibition in test [2] worked out at 0%.

For the compound `O=C(c1nc(-c2ccccc2Cl)c2cc(Cl)ccc2n1)N1CCCCC1`, the Ki in test [3] was found to be 273 nM. The inhibition in test [2] turned out to be 0%.

In the case of `CCOC(=O)c1ncn2c1CN(C)C(=O)c1cc(F)ccc1-2`, the inhibition in test [2] was determined as 0%.

`CCCCCCN(CCCCCC)C(=O)c1nc(-c2ccccc2Cl)c2ccccc2n1` registered a Ki in test [3] of 65.1 nM. The compound further gave an inhibition in test [2] of 0%.

As to `CC(C)CN(C)C(=O)c1nc(-c2ccccc2)c2cc(Cl)ccc2n1`, affinity in test [3] was put at a Ki of 842 nM. This compound came in with an inhibition in test [2] of 0%.

`CC(C)N(C)C(=O)c1nc(-c2ccccc2Cl)c2ccccc2n1`: in test [3], the Ki turned out to be 12.5 nM. In test [2], the inhibition was determined as 0%.

On to `CCC(C)NC(=O)c1nc(-c2ccccc2Cl)c2ccccc2n1` (stereo unspecified), for which the inhibition in test [1] came out at 63%; in test [2] it was 0%.

`CCCCN(C)C(=O)c1nc(-c2ccccc2)c2ccccc2n1`: in test [3], the inhibition constant Ki stood at 46 nM. The result in test [4] was Active. The compound also displayed an inhibition in test [2] of 0%.

Regarding `CCC(C)N(C)C(=O)c1nc(-c2ccc(Cl)cc2)c2ccccc2n1` (stereo unspecified), the affinity in test [3], expressed as Ki, was 2.67 nM. Moreover, in test [4], the result was Active. The compound also came in with an inhibition in test [2] of 0%.

`CC(C)N(C)C(=O)c1nc(-c2ccccc2)c2cc(Cl)ccc2n1`: the inhibition in test [1] and in test [2] was 0% in each case.

Consider `CCCCCCN(CCCCCC)C(=O)c1nc(-c2ccccc2Cl)c2cc(Cl)ccc2n1`, for which the Ki in test [3] was determined as 30.4 nM. The compound also came in with an inhibition in test [2] of 0%.

For `O=C(c1nc(-c2ccccc2)c2ccccc2n1)N1CCCCCC1`, the inhibition came out at 79% in test [1] and 0% in test [2].

In the case of `CC(C)CN(C)C(=O)c1nc(-c2ccccc2Cl)c2ccccc2n1`, the affinity in test [3] corresponds to a Ki of 6.98 nM. Further, in test [2], the inhibition is 0%.

Compound `CN1C(=O)CN=C(c2ccccc2F)c2cc([N+](=O)[O-])ccc21` showed an inhibition in test [2] of 0%.

For `CC(C)CN(C)C(=O)c1nc(-c2ccc(Cl)cc2)c2ccccc2n1`, the Ki in test [3] amounted to 20.7 nM. Moreover, the inhibition in test [2] was determined as 0%.

`CCCCCCN(CCCCCC)C(=O)c1nc(-c2ccccc2)c2cc(Cl)ccc2n1`: the affinity in test [3] corresponds to a Ki of 38.5 nM. For the same compound, the inhibition in test [2] was 0%.

In turn, `O=C(c1nc(-c2ccc(Cl)cc2)c2ccccc2n1)N1CCCC1` had an inhibition constant (Ki) in test [3] of 644 nM. Moreover, the inhibition in test [2] was found to be 0%.

For `O=C(c1nc(-c2ccccc2Cl)c2ccccc2n1)N1CCCCCC1`, the Ki in test [3] was 8.77 nM. The same compound returned an inhibition in test [2] of 0%.

Take `CCC(C)NC(=O)c1nc(-c2ccc(Cl)cc2)c2ccccc2n1` (stereo unspecified): the inhibition in test [1] stood at 37%; in test [2], 0%.

Regarding `O=C(c1nc(-c2ccc(Cl)cc2)c2cc(Cl)ccc2n1)N1CCCCCC1`, the inhibition was determined as 77% in test [1] and 0% in test [2].

In the case of `CCC(C)N(C)C(=O)c1nc(-c2ccccc2)c2cc(Cl)ccc2n1` (stereo unspecified), the values for the inhibition in test [1] and in test [2] were 22% and 0%, respectively.

Take `CC(C)CN(C)C(=O)c1nc(-c2ccccc2)c2ccccc2n1`: the affinity in test [3], expressed as Ki, was 66.5 nM. Further, the inhibition in test [2] came to 0%.

`CC(C)N(C)C(=O)c1nc(-c2ccc(Cl)cc2)c2ccccc2n1` yielded a Ki in test [3] of 50.4 nM. The compound further registered an inhibition in test [2] of 0%.

In the case of `CCC(C)N(C)C(=O)c1nc(-c2ccc(Cl)cc2)c2cc(Cl)ccc2n1` (stereo unspecified), the Ki in test [3] came to 179 nM. This compound had an inhibition in test [2] of 0%.

`CCCN(CCC)C(=O)Cc1c(-c2ccc(Cl)cc2)nc2ccc(Cl)cn12` registered an inhibition in test [2] of 0%.

Turning to `CC[C@@H](C)N(C)C(=O)c1nc(-c2ccc(Cl)cc2)c2ccccc2n1`, the Ki in test [3] came out at 1.57 nM. In addition, the inhibition in test [2] is 0%.

For `CCCCCN(CCCCC)C(=O)c1nc(-c2ccccc2)c2ccccc2n1`, the inhibition in test [2] worked out at 0%.

For `CCC(C)N(C)C(=O)c1nc(-c2ccccc2Cl)c2ccccc2n1` (stereo unspecified), the inhibition constant Ki in test [3] was 3.06 nM. For the same compound, the outcome in test [4] and in test [5] was Active. For the same compound, the inhibition in test [2] turned out to be 0%.

As for `O=C(c1nc(-c2ccccc2Cl)c2ccccc2n1)N1CCCC1`, the figures for the inhibition in test [1] and in test [2] were 70% and 0%, respectively.

Regarding `O=C(c1nc(-c2ccccc2)c2ccccc2n1)N1CCCCC1`, the inhibition in test [1] turned out to be 61%; in test [2], 0%.

`CC(C)N(C)C(=O)c1nc(-c2ccccc2Cl)c2cc(Cl)ccc2n1`: the inhibition in test [1] and in test [2] was 0% each time.

As to `O=C(c1nc(-c2ccccc2)c2cc(Cl)ccc2n1)N1CCCCC1`, the figures for the inhibition in test [1] and in test [2] were 46% and 0%, respectively.

As for `CC[C@@H](C)N(C)C(=O)c1nc(-c2ccccc2Cl)c2ccccc2n1`, the Ki in test [3] was determined as 1.55 nM. In addition, the inhibition in test [2] worked out at 0%.

Regarding `CC(C)CN(C)C(=O)c1nc(-c2ccccc2Cl)c2cc(Cl)ccc2n1`, the values for the inhibition in test [1] and in test [2] were 77% and 0%, respectively.

With `O=C(c1nc(-c2ccc(Cl)cc2)c2cc(Cl)ccc2n1)N1CCCC1`, the inhibition worked out at 64% in test [1] and 0% in test [2].

Regarding `CCC(C)NC(=O)c1nc(-c2ccccc2Cl)c2cc(Cl)ccc2n1` (stereo unspecified), the inhibition in test [1] and in test [2] was 0% in each case.

Take `CN1C(=O)CN=C(c2ccc(Cl)cc2)c2cc(Cl)ccc21`: in test [4], the outcome was Active. The inhibition in test [2] came to 0%.

Compound `CCCCCCN(CCCCCC)C(=O)c1nc(-c2ccccc2)c2ccccc2n1` gave a Ki in test [3] of 0.69 nM. Moreover, in test [4], the result was inactive. The inhibition in test [2] came to 0%. Besides, the result in test [5] was Active.

With `O=C(c1nc(-c2ccc(Cl)cc2)c2cc(Cl)ccc2n1)N1CCCCC1`, the inhibition in test [1] stood at 76%; in test [2] it was 0%.

On to `CCC(C)N(C)C(=O)c1cc2ccccc2c(-c2ccccc2Cl)n1` (stereo unspecified), for which the outcome in test [4] and in test [5] was Active. Also, the inhibition in test [2] was determined as 0%.

As for `O=C(c1nc(-c2ccccc2Cl)c2cc(Cl)ccc2n1)N1CCCC1`, the figures for the inhibition in test [1] and in test [2] were 73% and 0%, respectively.

Take `CC[C@H](C)N(C)C(=O)c1nc(-c2ccccc2Cl)c2ccccc2n1`: the Ki in test [3] was 2.2 nM. This compound also came in with an inhibition in test [2] of 0%.

`CC[C@H](C)N(C)C(=O)c1nc(-c2ccc(Cl)cc2)c2ccccc2n1`: in test [3], the Ki came to 2.51 nM. In addition, the inhibition in test [2] stood at 0%.

Consider `O=C(c1nc(-c2ccccc2)c2ccccc2n1)N1CCCC1`, for which the inhibition in test [1] stood at 36%; in test [2] it was 0%.

On to `O=C(c1nc(-c2ccccc2)c2cc(Cl)ccc2n1)N1CCCCCC1`, for which the inhibition in test [1] is 38%; in test [2], 0%.

For `O=C(c1nc(-c2ccccc2Cl)c2cc(Cl)ccc2n1)N1CCCCCC1`, in test [3], the Ki was found to be 415 nM. In test [2], the inhibition amounted to 0%.

Regarding `CCCCN(CCCC)C(=O)c1nc(-c2ccccc2)c2ccccc2n1`, in test [3], affinity was put at a Ki of 3.3 nM. The outcome in test [4] was Active. In test [2], this compound registered an inhibition of 0%.

As for `CCC(C)NC(=O)c1nc(-c2ccccc2)c2cc(Cl)ccc2n1` (stereo unspecified), the inhibition in test [1] and in test [2] was 0% in each case.

Turning to `CCCN(CCC)C(=O)c1nc(-c2ccccc2)c2ccccc2n1`, the inhibition constant (Ki) in test [3] came to 36.8 nM. The same compound displayed an inhibition in test [2] of 0%.

Regarding `CC[C@@H](C)N(C)C(=O)c1nc(-c2ccccc2)c2ccccc2n1`, the Ki in test [3] was 6.41 nM. In addition, the inhibition in test [2] is 0%.

`CCC(C)N(C)C(=O)c1nc(-c2ccccc2Cl)c2cc(Cl)ccc2n1` (stereo unspecified): the inhibition in test [1] amounted to 43%; in test [2], 0%.

Take `O=C(c1nc(-c2ccccc2Cl)c2ccccc2n1)N1CCCCC1`: the Ki in test [3] amounted to 46 nM. The same compound returned an inhibition in test [2] of 0%.

Compound `O=C(c1nc(-c2ccc(Cl)cc2)c2ccccc2n1)N1CCCCCC1` registered a Ki in test [3] of 84.3 nM. The inhibition in test [2] was determined as 0%.

As for `CC(C)CN(C)C(=O)c1nc(-c2ccc(Cl)cc2)c2cc(Cl)ccc2n1`, in test [3], the Ki was determined as 60.7 nM. In test [2], the inhibition is 0%.

Turning to `CCC(C)N(C)C(=O)c1nc(-c2ccccc2)c2ccccc2n1` (stereo unspecified), the Ki in test [3] is 3 nM. Further, the inhibition in test [2] was determined as 0%.
